From ChEMBL document CHEMBL5537122, “Design, synthesis, and biological evaluation of 4-(2-fluorophenoxy)-7-methoxyquinazoline derivatives as dual EGFR/c-Met inhibitors for the treatment of NSCLC” (Eur J Med Chem, 2024)
Active and inactive are the calls of the source. No cut-off for these calls is given here.

Experiments:
NCI-H1975 [1] = assay: Antiproliferative activity against human NCI-H1975 cells overexpressing c-Met and EGFR assessed as reduction in cell viability incubated for 72 hrs by MTT assay; assay type: functional, cell-based; settings: NCI-H1975, 72 h
PC-9 = assay: Antiproliferative activity against human PC-9 cells overexpressing c-Met and EGFR assessed as reduction in cell viability incubated for 72 hrs by MTT assay; assay type: functional, cell-based; settings: PC-9, 72 h
A549 [2] = assay: Induction of apoptosis in human A549 cells overexpressing c-MET assessed as increase in green fluorescence intensity incubated for 24 hrs by JC-1 staining based fluorescence inverted microscopic analysis; assay type: functional, cell-based; settings: dose 1-2.5 µM
A549 [3] = assay: Induction in apoptosis in human A549 cells overexpressing c-MET assessed as early apoptotic cells at 1 uM incubated for 24 hrs by Annexin V-FITC/Propidium Iodide staining based flow cytometry analysis (reference value: 7.27 %); assay type: functional
A549 [4] = assay: Induction in apoptosis in human A549 cells overexpressing c-MET assessed as viable cells at 2.5 uM incubated for 24 hrs by Annexin V-FITC/Propidium Iodide staining based flow cytometry analysis (reference value: 81.92 %; assay type: functional; settings: read-out: Activity
NCI-H1975 [5] = assay: Induction in apoptosis in human NCI-H1975 cells assessed as viable cells at 1 uM incubated for 24 hrs by Annexin V-FITC/Propidium Iodide staining based flow cytometry analysis (reference value: 91.58 %); assay type: functional; settings: read-out: Activity
NCI-H1975 [6] = assay: Induction in apoptosis in human NCI-H1975 cells assessed as early apoptotic cells at 1 uM incubated for 24 hrs by Annexin V-FITC/Propidium Iodide staining based flow cytometry analysis (reference value: 2.54 %); assay type: functional
NCI-H1975 [7] = assay: Induction in apoptosis in human NCI-H1975 cells assessed as late apoptotic cells at 1 uM incubated for 24 hrs by Annexin V-FITC/Propidium Iodide staining based flow cytometry analysis (reference value: 4.46 %); assay type: functional
NCI-H1975 [8] = assay: Induction in apoptosis in human NCI-H1975 cells assessed as necrotic cells at 1 uM incubated for 24 hrs by Annexin V-FITC/Propidium Iodide staining based flow cytometry analysis (reference value: 1.42 %); assay type: functional
NCI-H1975 [9] = assay: Induction in apoptosis in human NCI-H1975 cells assessed as viable cells at 2.5 uM incubated for 24 hrs by Annexin V-FITC/Propidium Iodide staining based flow cytometry analysis (reference value: 91.58 %); assay type: functional; settings: read-out: Activity
NCI-H1975 [10] = assay: Induction in apoptosis in human NCI-H1975 cells assessed as early apoptotic cells at 2.5 uM incubated for 24 hrs by Annexin V-FITC/Propidium Iodide staining based flow cytometry analysis (reference value: 2.54 %); assay type: functional
NCI-H1975 [11] = assay: Induction in apoptosis in human NCI-H1975 cells assessed as necrotic cells at 2.5 uM incubated for 24 hrs by Annexin V-FITC/Propidium Iodide staining based flow cytometry analysis (reference value: 1.42 %); assay type: functional
L02 [12] = assay: Induction in apoptosis in human L02 cells assessed as early apoptotic cells at 1 uM incubated for 24 hrs by Annexin V-FITC/Propidium Iodide staining based flow cytometry analysis (reference value: 0.26 %); assay type: toxicity, cell-based; settings: l02, 24 h
L02 [13] = assay: Induction in apoptosis in human L02 cells assessed as late apoptotic cells at 1 uM incubated for 24 hrs by Annexin V-FITC/Propidium Iodide staining based flow cytometry analysis (reference value: 0.36 %); assay type: toxicity, cell-based; settings: l02, 24 h
L02 [14] = assay: Induction in apoptosis in human L02 cells assessed as necrotic cells at 1 uM incubated for 24 hrs by Annexin V-FITC/Propidium Iodide staining based flow cytometry analysis (reference value: 6.63 %); assay type: toxicity, cell-based; settings: l02, 24 h
L02 [15] = assay: Induction in apoptosis in human L02 cells assessed as late apoptotic cells at 2.5 uM incubated for 24 hrs by Annexin V-FITC/Propidium Iodide staining based flow cytometry analysis (reference value: 0.36 %); assay type: toxicity, cell-based; settings: l02, 24 h
A549 [16] = assay: Induction of cell cycle arrest in human A549 cells overexpressing c-MET assessed as accumulation of cells at G2/M phase at 1 uM incubated for 24 hrs by RNase A/propidium iodide staining based flow cytometric analysis (reference value: 12.41 %); assay type: functional
A549 [17] = assay: Induction of cell cycle arrest in human A549 cells overexpressing c-MET assessed as accumulation of cells at S phase at 2.5 uM incubated for 24 hrs by RNase A/propidium iodide staining based flow cytometric analysis (reference value: 37.87 %); assay type: functional
A549 [18] = assay: Downregulation of phosphorylated EGFR protein expression level human A549 cells overexpressing c-MET incubated for 24 hrs by Western blotting analysis; assay type: functional, cell-based; settings: dose 1-10 µM
[19] = biological target: T1, Epidermal growth factor receptor (Homo sapiens, UniProt P00533); assay: Inhibition of wild type EGFR (unknown origin) at 10 uM relative to control
T1 sequence (P00533 whole entry): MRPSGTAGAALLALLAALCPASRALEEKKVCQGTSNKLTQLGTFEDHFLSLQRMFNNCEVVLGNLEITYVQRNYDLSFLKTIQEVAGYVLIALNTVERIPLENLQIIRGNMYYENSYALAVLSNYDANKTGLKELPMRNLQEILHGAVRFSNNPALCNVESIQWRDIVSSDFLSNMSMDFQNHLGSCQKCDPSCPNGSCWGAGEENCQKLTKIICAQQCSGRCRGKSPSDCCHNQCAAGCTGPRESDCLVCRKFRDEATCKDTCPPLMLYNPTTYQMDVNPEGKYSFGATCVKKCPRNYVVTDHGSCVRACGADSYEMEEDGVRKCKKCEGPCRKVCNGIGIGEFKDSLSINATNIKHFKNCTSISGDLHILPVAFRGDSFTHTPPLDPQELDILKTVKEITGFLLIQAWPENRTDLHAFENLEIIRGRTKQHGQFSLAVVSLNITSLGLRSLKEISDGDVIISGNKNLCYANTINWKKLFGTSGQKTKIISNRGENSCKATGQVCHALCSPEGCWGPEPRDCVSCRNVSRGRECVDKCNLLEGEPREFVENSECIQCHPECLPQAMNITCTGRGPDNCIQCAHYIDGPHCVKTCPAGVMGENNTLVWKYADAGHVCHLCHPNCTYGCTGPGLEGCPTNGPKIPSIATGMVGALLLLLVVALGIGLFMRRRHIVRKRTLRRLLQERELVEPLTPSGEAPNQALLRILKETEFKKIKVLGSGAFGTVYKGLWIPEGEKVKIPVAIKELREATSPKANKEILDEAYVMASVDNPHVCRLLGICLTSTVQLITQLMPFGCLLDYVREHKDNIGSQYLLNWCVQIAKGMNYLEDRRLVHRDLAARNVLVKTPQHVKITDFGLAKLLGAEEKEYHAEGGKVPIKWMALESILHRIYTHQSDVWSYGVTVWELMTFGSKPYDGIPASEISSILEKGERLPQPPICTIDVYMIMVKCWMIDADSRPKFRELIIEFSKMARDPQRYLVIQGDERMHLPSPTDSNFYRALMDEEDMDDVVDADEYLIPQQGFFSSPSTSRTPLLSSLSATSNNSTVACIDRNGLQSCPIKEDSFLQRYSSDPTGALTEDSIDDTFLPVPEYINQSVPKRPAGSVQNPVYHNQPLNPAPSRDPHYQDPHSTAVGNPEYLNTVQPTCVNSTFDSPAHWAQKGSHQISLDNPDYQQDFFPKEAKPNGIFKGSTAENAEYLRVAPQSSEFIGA

[20] = biological target: Proto-oncogene tyrosine-protein kinase ROS (Homo sapiens) (UniProt P08922); assay: Inhibition of ROS (unknown origin) at 10 uM
[21] = biological target: Vascular endothelial growth factor receptor 1 (Homo sapiens) (UniProt P17948); assay: Inhibition of FLT1 (unknown origin) at 10 uM
[22] = biological target: Fibroblast growth factor receptor 4 (Homo sapiens) (UniProt P22455); assay: Inhibition of FGFR4 (unknown origin) at 10 uM
[23] = biological target: Receptor-type tyrosine-protein kinase FLT3 (Homo sapiens) (UniProt P36888); assay: Inhibition of FLT3 (unknown origin) at 10 uM
[24] = biological target: ALK tyrosine kinase receptor (Homo sapiens) (UniProt Q9UM73); assay: Inhibition of ALK (unknown origin) at 10 uM
ALK tyrosine kinase receptor (Homo sapiens), sequence (Q9UM73 19-1620 limits assumed): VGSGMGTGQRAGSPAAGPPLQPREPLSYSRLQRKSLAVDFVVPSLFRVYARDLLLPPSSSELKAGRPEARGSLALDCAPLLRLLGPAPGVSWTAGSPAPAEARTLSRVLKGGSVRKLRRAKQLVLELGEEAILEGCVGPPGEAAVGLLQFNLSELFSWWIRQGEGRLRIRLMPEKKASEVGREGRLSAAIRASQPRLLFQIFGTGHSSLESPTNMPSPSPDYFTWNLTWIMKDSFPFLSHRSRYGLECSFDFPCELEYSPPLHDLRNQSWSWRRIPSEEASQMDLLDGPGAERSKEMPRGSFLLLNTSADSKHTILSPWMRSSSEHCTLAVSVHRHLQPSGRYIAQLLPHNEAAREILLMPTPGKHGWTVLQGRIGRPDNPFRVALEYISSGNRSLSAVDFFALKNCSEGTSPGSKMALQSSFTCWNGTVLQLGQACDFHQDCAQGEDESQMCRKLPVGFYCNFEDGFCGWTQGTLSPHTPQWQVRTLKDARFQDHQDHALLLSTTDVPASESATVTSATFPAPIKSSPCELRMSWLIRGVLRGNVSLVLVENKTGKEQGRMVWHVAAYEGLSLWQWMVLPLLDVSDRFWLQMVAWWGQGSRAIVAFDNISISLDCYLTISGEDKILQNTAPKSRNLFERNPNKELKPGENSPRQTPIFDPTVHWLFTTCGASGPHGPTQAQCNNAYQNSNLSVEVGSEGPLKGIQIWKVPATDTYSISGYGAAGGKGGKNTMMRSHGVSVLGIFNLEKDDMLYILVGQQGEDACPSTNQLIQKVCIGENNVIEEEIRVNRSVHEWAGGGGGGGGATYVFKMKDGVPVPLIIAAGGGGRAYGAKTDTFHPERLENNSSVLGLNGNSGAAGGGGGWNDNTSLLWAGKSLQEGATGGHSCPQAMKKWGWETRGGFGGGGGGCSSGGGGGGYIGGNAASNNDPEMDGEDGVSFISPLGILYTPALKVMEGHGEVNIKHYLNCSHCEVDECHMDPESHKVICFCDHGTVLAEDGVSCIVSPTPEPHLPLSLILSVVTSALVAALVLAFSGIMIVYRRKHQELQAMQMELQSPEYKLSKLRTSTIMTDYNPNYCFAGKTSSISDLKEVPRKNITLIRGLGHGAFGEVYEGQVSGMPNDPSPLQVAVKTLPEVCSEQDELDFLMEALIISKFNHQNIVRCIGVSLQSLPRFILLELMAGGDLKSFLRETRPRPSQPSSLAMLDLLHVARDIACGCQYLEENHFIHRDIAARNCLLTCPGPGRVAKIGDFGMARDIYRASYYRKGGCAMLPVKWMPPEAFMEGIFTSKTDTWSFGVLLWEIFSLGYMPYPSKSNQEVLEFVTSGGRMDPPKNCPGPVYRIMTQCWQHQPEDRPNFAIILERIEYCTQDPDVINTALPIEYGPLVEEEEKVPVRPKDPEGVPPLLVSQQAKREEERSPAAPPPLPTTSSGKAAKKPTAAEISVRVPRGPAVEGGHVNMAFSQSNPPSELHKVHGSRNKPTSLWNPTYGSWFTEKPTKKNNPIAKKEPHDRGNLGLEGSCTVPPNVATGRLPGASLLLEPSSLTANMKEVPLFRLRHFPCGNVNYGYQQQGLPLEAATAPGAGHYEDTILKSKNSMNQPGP

[25] = biological target: Fibroblast growth factor receptor 2 (Homo sapiens) (UniProt P21802); assay: Inhibition of FGFR2 (unknown origin) at 10 uM
Fibroblast growth factor receptor 2 (Homo sapiens), sequence (P21802 22-821 limits assumed): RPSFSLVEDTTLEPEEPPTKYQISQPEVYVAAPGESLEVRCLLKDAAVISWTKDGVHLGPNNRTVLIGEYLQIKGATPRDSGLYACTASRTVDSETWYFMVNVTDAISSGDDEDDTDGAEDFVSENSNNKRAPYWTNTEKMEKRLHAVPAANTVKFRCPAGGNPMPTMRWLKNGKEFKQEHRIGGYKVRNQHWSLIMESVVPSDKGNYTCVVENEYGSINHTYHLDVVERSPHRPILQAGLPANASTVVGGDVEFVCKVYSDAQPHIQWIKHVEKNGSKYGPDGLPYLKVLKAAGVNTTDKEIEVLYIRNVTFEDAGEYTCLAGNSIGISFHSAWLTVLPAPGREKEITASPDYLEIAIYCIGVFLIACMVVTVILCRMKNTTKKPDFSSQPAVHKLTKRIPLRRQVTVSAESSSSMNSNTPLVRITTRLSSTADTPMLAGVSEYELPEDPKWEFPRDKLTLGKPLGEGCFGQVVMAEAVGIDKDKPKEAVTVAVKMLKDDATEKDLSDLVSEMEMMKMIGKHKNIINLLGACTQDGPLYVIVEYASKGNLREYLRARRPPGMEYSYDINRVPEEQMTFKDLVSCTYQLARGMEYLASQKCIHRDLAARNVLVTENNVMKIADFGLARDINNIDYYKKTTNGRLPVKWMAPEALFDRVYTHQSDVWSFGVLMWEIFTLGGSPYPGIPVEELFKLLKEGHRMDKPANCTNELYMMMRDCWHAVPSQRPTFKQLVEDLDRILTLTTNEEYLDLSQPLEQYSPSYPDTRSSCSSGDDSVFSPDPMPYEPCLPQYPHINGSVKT

[26] = biological target: Mitogen-activated protein kinase 1 (Homo sapiens) (UniProt P28482); assay: Inhibition of MAPK1 (unknown origin) at 10 uM
[27] = Cardiotoxicity in KM mouse assessed as effect on creatine kinase level at 100 mg/kg, IG qd administered for 7 days by automatic biochemical analyzer; assay type: toxicity, organism-based; settings: in vivo, po, 168 h, time 7 day
[28] = Nephrotoxicity in KM mouse assessed as effect on creatinine level at 100 mg/kg, IG qd administered for 7 days by automatic biochemical analyzer; assay type: toxicity, organism-based; settings: in vivo, po, 168 h, time 7 day
[29] = Acute toxicity in KM mouse assessed as effect on total protein level at 100 mg/kg, IG qd administered for 7 days by automatic biochemical analyzer; assay type: organism-based; settings: in vivo, po, 168 h, time 7 day
A549 [30] = assay: Inhibition of colony formation in human A549 cells overexpressing c-MET at 1 uM preincubated for 48 hrs followed by media replacement for every 2 days for 14 days by crystal violet staining based microscopic analysis relative to control; assay type: functional
A549 [31] = assay: Inhibition of colony formation in human A549 cells overexpressing c-MET at 2 uM preincubated for 48 hrs followed by media replacement for every 2 days for 14 days by crystal violet staining based microscopic analysis relative to control; assay type: functional
NCI-H1975 [32] = assay: Inhibition of colony formation in human NCI-H1975 cells at 1 uM preincubated for 48 hrs followed by media replacement for every 2 days for 14 days by crystal violet staining based microscopic analysis relative to control; assay type: functional
[33] = biological target: T1, Epidermal growth factor receptor; assay: biochemical
Description: Inhibition of N-terminal GST tagged human recombinant EGFR (695 to end residues) expressed in baculovirus infected Sf9 cells using Poly (4:1 Glu, Tyr) as substrate incubated for 60 mins in presence of ATP by ADP-Glo luminescent assay

[34] = biological target: Hepatocyte growth factor receptor (Homo sapiens, UniProt P08581); assay: biochemical
Hepatocyte growth factor receptor, sequence (P08581 whole entry): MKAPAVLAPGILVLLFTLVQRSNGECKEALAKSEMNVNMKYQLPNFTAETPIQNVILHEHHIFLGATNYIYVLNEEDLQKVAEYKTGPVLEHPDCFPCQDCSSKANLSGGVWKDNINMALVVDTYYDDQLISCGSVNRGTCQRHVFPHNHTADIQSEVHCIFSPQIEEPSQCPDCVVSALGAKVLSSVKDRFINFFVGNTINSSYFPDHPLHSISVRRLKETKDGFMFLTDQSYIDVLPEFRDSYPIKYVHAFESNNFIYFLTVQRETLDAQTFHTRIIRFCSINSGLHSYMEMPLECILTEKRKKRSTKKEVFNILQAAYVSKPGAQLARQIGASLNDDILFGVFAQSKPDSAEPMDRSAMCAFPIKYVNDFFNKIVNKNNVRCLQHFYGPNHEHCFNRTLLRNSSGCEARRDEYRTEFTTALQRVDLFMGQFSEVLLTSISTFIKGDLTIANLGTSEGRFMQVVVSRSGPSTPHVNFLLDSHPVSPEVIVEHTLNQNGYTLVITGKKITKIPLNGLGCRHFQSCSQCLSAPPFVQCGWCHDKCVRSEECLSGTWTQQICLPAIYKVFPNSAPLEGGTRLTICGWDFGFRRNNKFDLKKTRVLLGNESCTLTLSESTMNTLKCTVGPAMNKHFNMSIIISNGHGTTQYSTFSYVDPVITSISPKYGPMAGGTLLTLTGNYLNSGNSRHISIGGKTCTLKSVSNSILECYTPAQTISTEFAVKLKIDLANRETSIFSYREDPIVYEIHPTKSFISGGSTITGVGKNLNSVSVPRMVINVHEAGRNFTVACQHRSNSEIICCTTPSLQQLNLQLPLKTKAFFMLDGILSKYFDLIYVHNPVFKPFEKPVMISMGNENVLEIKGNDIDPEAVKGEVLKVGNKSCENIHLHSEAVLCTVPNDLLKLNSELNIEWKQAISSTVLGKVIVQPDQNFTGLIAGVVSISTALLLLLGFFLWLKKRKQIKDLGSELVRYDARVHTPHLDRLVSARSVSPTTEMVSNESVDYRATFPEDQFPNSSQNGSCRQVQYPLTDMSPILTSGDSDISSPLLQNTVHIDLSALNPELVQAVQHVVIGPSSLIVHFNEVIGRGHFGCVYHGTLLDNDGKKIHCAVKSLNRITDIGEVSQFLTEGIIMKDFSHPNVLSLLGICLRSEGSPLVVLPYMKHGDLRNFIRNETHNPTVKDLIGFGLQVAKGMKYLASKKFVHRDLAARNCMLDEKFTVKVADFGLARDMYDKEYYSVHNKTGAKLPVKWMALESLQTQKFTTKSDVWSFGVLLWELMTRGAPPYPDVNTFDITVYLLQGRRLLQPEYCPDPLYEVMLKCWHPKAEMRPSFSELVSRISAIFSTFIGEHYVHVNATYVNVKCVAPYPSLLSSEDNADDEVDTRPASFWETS
Description: Inhibition of N-terminal GST tagged human recombinant c-Met (956 to end residues) expressed in baculovirus infected Sf9 cells using Poly (4:1 Glu, Tyr) as substrate incubated for 60 mins in presence of ATP by ADP-Glo luminescent assay

C=CC(=O)Nc1cc2c(Oc3ccc(NC(=O)n4c(=O)c(-c5ccccc5)c(C)n4C)cc3F)cccc2cc1OC
IC50 (NCI-H1975 [1]): 1130 nM
IC50 (PC-9): 1050 nM
Activity (A549 [2]): Dose-Dependent Effect
Activity (A549 [3]): 10.4%
viability at 2.5 µM (A549 [4]): 60.1%
viability at 1 µM (NCI-H1975 [5]): 88.2%
Activity (NCI-H1975 [6]): 2.77%
Activity (NCI-H1975 [7]): 7.27%
Activity (NCI-H1975 [8]): 1.74%
viability at 2.5 µM (NCI-H1975 [9]): 85.5%
Activity (NCI-H1975 [10]): 3.87%
Activity (NCI-H1975 [11]): 2.49%
Activity (L02 [12]): 0.21%
Activity (L02 [13]): 0.28%
Activity (L02 [14]): 7.58%
Activity (L02 [15]): 0.34%
Activity (A549 [16]): 11.29%
Activity (A549 [17]): 31.41%
Activity (A549 [18]): Dose-Dependent Effect
inhibition [19]: > 90%
inhibition [20]: Active
inhibition [21]: Active
inhibition [22]: inactive
inhibition [23]: inactive
inhibition [24]: inactive
inhibition [25]: inactive
inhibition [26]: inactive
Activity [27]: Non-Toxic
Activity [28]: Non-Toxic
Activity [29]: Non-Toxic
inhibition at 1 µM (A549 [30]): ~50%
inhibition at 2 µM (A549 [31]): ~100%
inhibition at 1 µM (NCI-H1975 [32]): ~50%
IC50 [33]: 99.8 nM
IC50 [34]: 0.26 nM
